For this test, the system named is B6C3F1 mice, intracerebral ependymoblastoma, median survival T/C. Nature of the test: NCI In Vivo Anticancer Drug Screen. Data for tumor model Ependymoblastoma (intracerebral) in B6C3F1 mice. The following applies: endpoint: median survival time, higher = longer survival. The protocol:
The antitumor activity of compounds was measured in mice bearing transplantable tumors. Survival or tumor size were measured and the results are expressed as the measurement made in the treated group (T) divided by the measurement made in the vehicle treated control group (C). The tumor model used in this assay is Ependymoblastoma (intracerebral) in B6C3F1 mice

Where [1] appears, read: dose: 8.0 mg/kg/injection, schedule: Q01DX005 (ip), vehicle: saline with Tween-80.
Where [2] appears, read: dose: 16.0 mg/kg/injection, schedule: Q01DX005 (ip), vehicle: saline with Tween-80.
Setting [3] is: dose: 32.0 mg/kg/injection, schedule: Q01DX005 (ip), vehicle: saline with Tween-80.

The structures appear in SMILES notation. Where “and” joins values, the source holds several entries; their conditions need not be identical. Equal entries are not always repeated. Toxic doses and inconclusive results are not listed.

In the case of `O=C1c2ccccc2C(=O)c2c(NCCNCCO)ccc(NCCNCCO)c21`, the T/C was 107 % of control (dose: 1.0 mg/kg/injection, schedule: Q04DX003 (ip), vehicle: Klucel (hydroxypropylcellulose) (HPC)); 102 % of control (dose: 1.0 mg/kg/injection, schedule: Q04DX003 (ip), vehicle: water); 102 % of control [middle of 4 runs] (dose: 2.0 mg/kg/injection, schedule: Q01DX005 (ip), vehicle: saline with Tween-80); 97 % of control (dose: 2.0 mg/kg/injection, schedule: Q04DX003 (ip), vehicle: Klucel (hydroxypropylcellulose) (HPC)); 101 % of control (dose: 2.0 mg/kg/injection, schedule: Q04DX003 (ip), vehicle: water); 101 % of control [middle of 4 runs] (dose: 4.0 mg/kg/injection, schedule: Q01DX005 (ip), vehicle: saline with Tween-80). Besides, the T/C is 101 % of control (dose: 4.0 mg/kg/injection, schedule: Q04DX003 (ip), vehicle: Klucel (hydroxypropylcellulose) (HPC)); 92 % of control (dose: 4.0 mg/kg/injection, schedule: Q04DX003 (ip), vehicle: water); 109 % of control [middle of 4 runs] under setting [1]; 110 % of control (dose: 8.0 mg/kg/injection, schedule: Q04DX003 (ip), vehicle: Klucel (hydroxypropylcellulose) (HPC)); 102 % of control (dose: 8.0 mg/kg/injection, schedule: Q04DX003 (ip), vehicle: water); 113 % of control [middle of 4 runs] under setting [2]. In addition, the T/C (dose: 16.0 mg/kg/injection, schedule: Q04DX003 (ip), vehicle: Klucel (hydroxypropylcellulose) (HPC)) was 108 % of control; the T/C (dose: 16.0 mg/kg/injection, schedule: Q04DX003 (ip), vehicle: water) is 92 % of control; the T/C under setting [3] was 94 % of control and 110 % of control and 116 % of control; the T/C (dose: 32.0 mg/kg/injection, schedule: Q04DX003 (ip), vehicle: Klucel (hydroxypropylcellulose) (HPC)) was 108 % of control; the T/C (dose: 32.0 mg/kg/injection, schedule: Q04DX003 (ip), vehicle: water) was 94 % of control; the T/C (dose: 64.0 mg/kg/injection, schedule: Q04DX003 (ip), vehicle: Klucel (hydroxypropylcellulose) (HPC)) was 97 % of control. For the same molecule, the T/C (dose: 128.0 mg/kg/injection, schedule: Q04DX003 (ip), vehicle: Klucel (hydroxypropylcellulose) (HPC)) is 92 % of control.
Take `COc1cc([C@@H]2c3cc4c(cc3[C@@H](OC3OC5CO[C@@H](c6cccs6)OC5C(O)C3O)[C@H]3COC(=O)[C@H]23)OCO4)cc(OC)c1O` (stereo partly drawn): the T/C (dose: 0.25 mg/kg/injection, schedule: Q01DX005 (ip), vehicle: saline) was 103 % of control; the T/C (dose: 0.5 mg/kg/injection, schedule: Q01DX005 (ip), vehicle: saline) was 90 % of control; the T/C (dose: 1.0 mg/kg/injection, schedule: Q12HX006 (ip), vehicle: saline) is 92 % of control; the T/C (dose: 2.0 mg/kg/injection, schedule: Q01DX005 (ip), vehicle: saline) is 118 % of control; the T/C (dose: 2.0 mg/kg/injection, schedule: Q01DX005 (oral), vehicle: saline) was 122 % of control; the T/C (dose: 2.0 mg/kg/injection, schedule: Q12HX002 (ip), vehicle: saline) is 93 % of control. Also, the T/C was 119 % of control (dose: 2.0 mg/kg/injection, schedule: Q12HX006 (ip), vehicle: saline); 100 % of control and 105 % of control (dose: 4.0 mg/kg/injection, schedule: Q01DX001 (ip), vehicle: saline); 124 % of control (dose: 4.0 mg/kg/injection, schedule: Q01DX005 (oral), vehicle: saline); 93 % of control (dose: 4.0 mg/kg/injection, schedule: Q12HX002 (ip), vehicle: saline); 119 % of control (dose: 4.0 mg/kg/injection, schedule: Q12HX006 (ip), vehicle: saline); 110 % of control and 111 % of control and 118 % of control (dose: 8.0 mg/kg/injection, schedule: Q01DX001 (ip), vehicle: saline). The T/C (dose: 8.0 mg/kg/injection, schedule: Q01DX005 (oral), vehicle: saline) was 113 % of control; the T/C (dose: 8.0 mg/kg/injection, schedule: Q12HX002 (ip), vehicle: saline) is 90 % of control; the T/C (dose: 8.0 mg/kg/injection, schedule: Q12HX006 (ip), vehicle: saline) is 122 % of control; the T/C (dose: 16.0 mg/kg/injection, schedule: Q01DX001 (ip), vehicle: saline) is 112 % of control and 115 % of control and 118 % of control; the T/C (dose: 16.0 mg/kg/injection, schedule: Q01DX001 (oral), vehicle: saline) was 94 % of control and 101 % of control; the T/C (dose: 16.0 mg/kg/injection, schedule: Q12HX002 (ip), vehicle: saline) was 93 % of control. Further, the T/C (dose: 32.0 mg/kg/injection, schedule: Q01DX001 (ip), vehicle: saline) is 104 % of control and 109 % of control and 117 % of control; the T/C (dose: 32.0 mg/kg/injection, schedule: Q01DX001 (oral), vehicle: saline) was 109 % of control and 110 % of control (2×); the T/C (dose: 64.0 mg/kg/injection, schedule: Q01DX001 (oral), vehicle: saline) is 104 % of control and 109 % of control and 115 % of control; the T/C (dose: 128.0 mg/kg/injection, schedule: Q01DX001 (oral), vehicle: saline) is 97 % of control and 109 % of control.
Consider `COC1OC(CNC(=O)N(C)N=O)C(O)C(O)C1O` (stereo not drawn), for which the T/C by setting is: (dose: 25.0 mg/kg/injection, schedule: Q01DX005 (ip), vehicle: saline) 124 % of control; (dose: 50.0 mg/kg/injection, schedule: Q01DX005 (ip), vehicle: saline) 121 % of control; (dose: 400.0 mg/kg/injection, schedule: Q01DX005 (ip), vehicle: saline) 164 % of control.
Consider `CCC(=O)O[C@H]1CC[C@H]2[C@@H]3CC[C@H]4CC(=O)[C@H](C)C[C@]4(C)[C@H]3CC[C@]12C`, for which the T/C was 95 % of control and 102 % of control (dose: 8.0 mg/kg/injection, schedule: Q01DX005 (ip), vehicle: Klucel (hydroxypropylcellulose) (HPC)); 98 % of control and 108 % of control under setting [1]; 90 % of control and 101 % of control (dose: 16.0 mg/kg/injection, schedule: Q01DX005 (ip), vehicle: Klucel (hydroxypropylcellulose) (HPC)); 95 % of control and 96 % of control under setting [2]; 97 % of control and 99 % of control (dose: 32.0 mg/kg/injection, schedule: Q01DX005 (ip), vehicle: Klucel (hydroxypropylcellulose) (HPC)); 103 % of control and 107 % of control under setting [3]. The T/C by setting is: (dose: 64.0 mg/kg/injection, schedule: Q01DX005 (ip), vehicle: Klucel (hydroxypropylcellulose) (HPC)) 95 % of control and 101 % of control; (dose: 64.0 mg/kg/injection, schedule: Q01DX005 (ip), vehicle: saline with Tween-80) 98 % of control and 111 % of control; (dose: 128.0 mg/kg/injection, schedule: Q01DX005 (ip), vehicle: Klucel (hydroxypropylcellulose) (HPC)) 98 % of control and 87 % of control; (dose: 128.0 mg/kg/injection, schedule: Q01DX005 (ip), vehicle: saline with Tween-80) 106 % of control and 108 % of control; (dose: 256.0 mg/kg/injection, schedule: Q01DX005 (ip), vehicle: Klucel (hydroxypropylcellulose) (HPC)) 93 % of control and 87 % of control; (dose: 256.0 mg/kg/injection, schedule: Q01DX005 (ip), vehicle: saline with Tween-80) 97 % of control and 113 % of control. Besides, the T/C reads like this: (dose: 512.0 mg/kg/injection, schedule: Q01DX005 (ip), vehicle: Klucel (hydroxypropylcellulose) (HPC)) 87 % of control; (dose: 512.0 mg/kg/injection, schedule: Q01DX005 (ip), vehicle: saline with Tween-80) 97 % of control and 101 % of control.

For the origin of these results see PubChem BioAssay AID226 (DTP/NCI, 2004).
